How the values were obtained:
[1] = molecular target: T1, hEno1 (Homo sapiens, UniProt P06733); assay: Enolase activity analysis (absorbance at 240 nm of PEP); type: biochemical
T1 construct: 6xHis; made in house; host or cells: E. coli BL21(DE3), inferred from 'same procedure' as CaEno1
Experimental: Enolase activity was determined by direct spectrophotometric assay via measuring the increase of absorbance at 240 nm of phosphoenolpyruvate (PEP) as described previously with some modifications ([54]). Briefly, the reaction buffer (pH 7.0) containing 10 mM imidazole, 200 mM KCl, and 0.5 mM MgAc in a final reaction volume of 100 μL was mixed with Eno1 (a final concentration of 30 nM), followed by the mixture of 2-phosphoglycerate (2-PG) (Yuanye Biotech Shanghai) with a final concentration of 1 mM. The enolase activity of Eno1 was evaluated by measuring the increase of absorbance (OD240) at room temperature for 10 min. […] The well-known enolase inhibitor sodium fluoride (NaF; Sangon Biotech) was initiated from 5 mM and used as a control ([29]). Inhibition curves were fitted by nonlinear regression (four parameters) using the GraphPad Prism software.

[2] = test system: C. albicans SC5314; assay: Spot assay on solid YPD or YPG plates containing BE; type: cell-based, Candida albicans; conditions: 48 h, 30°C
Experimental: To test whether BE antifungal activity in C. albicans as well as in mammalian cells was carbon source dependent ([27]), we investigated the activity of BE in spot assays on both solid yeast extract-peptone-dextrose (YPD) (containing 20 mg/mL glucose) and solid YPG (containing 2% [vol/vol] glycerol) media.
FIG 1 The antifungal activity of BE depends on the carbon source. The overnight-cultured C. albicans SC5314 cells were diluted to 1 × 10^7 cells/mL and used as the initial concentration for four times of 10-fold dilution. Subsequently, 5 μL of a 10-fold dilution series was spotted onto YPD or YPG solid plates containing the indicated different concentrations of BE. After 48 h of incubation at 30°C, pictures of the growth of cells were taken.
The spotting assay was performed as described previously ([50]). Briefly, after grown overnight, mid-log-phase cultures of strains required for experimental conditions were adjusted to 1 × 10^7 cells/mL using a hemacytometer, then were 1:10 serially diluted in sterile PBS, and were spotted onto indicated plates with an indicated concentration of BE. After 48 h of incubation at 30°C, pictures of the growth of cells were taken.

[3] = test system: C. albicans; assay: Treatment in liquid YP medium with different carbon sources, then spotting on solid YPD; type: cell-based, Candida albicans; conditions: 128 μg/mL BE, 48 h
Source text: FIG 2 Eno1 is a target of BE. (A) Schematic diagram of synthesis label-BE. Label-BE is synthesized by intermediate TPD-10a with benzyl bromide structure and triacetylated BE. (B) The molecular structure of label-BE. Label-BE contains a trifluoromethylphenyl diazo heterocyclic propylene group (marked by a red dotted line) as a photoaffinity group to enhance the binding of label-BE to its target proteins and an alkyne group (marked by a blue dotted line) connected with an azide group (from the TAMRA-N3 or biotin-N3) by a copper-catalyzed azide-alkyne cycloaddition. (C) The molecular structures of TAMRA-N3 and biotin-N3. Both of them contain azide groups (marked by a blue dotted line) connected with an alkyne group of label-BE to highlight the target proteins of label-BE. (D) The competition experiment with BE and label-BE used the TAMRA-N3 as a reporter. C. albicans cell lysates were preincubated with 100 μM BE (lane 2) or not (lane 3). Subsequently, the two groups were incubated with 10 μM label-BE and irradiated with UV light at 365 nm and then treated with TAMRA-N3. After separation of SDS-PAGE, label-BE-targeted proteins were visualized by in-gel fluorescence scanning. The three fluorescent bands in lane 3 (indicated by red triangles) were cut out and pooled and then analyzed by LC-MS/MS. (E) The competition experiment with BE and label-BE used the biotin-N3 as a reporter. In the following enrichment with streptavidin-conjugated beads and separation by SDS-PAGE gel, targets of label-BE were visualized by Coomassie blue staining. The brighter band in lane 3 (indicated by red triangle) was then cut out and analyzed by LC-MS/MS. […] C. albicans cells were first treated with 128 μg/mL BE in liquid YP medium with either 3-PG (32 mg/mL), pyruvate (32 mg/mL), glucose (20 mg/mL), or glycerol (2% [vol/vol]) for 48 h and then were spotted (1:10 dilution) onto solid YPD medium and photographed after 48 h of incubation at 30°C. The red termination line represents inhibition; 3-PG, 3-phosphoglyceric acid. (G) The competition experiment with BE and label-BE used the TAMRA-N3 as a reporter by E. coli cell lysates containing recombinant C. albicans Eno1.
In order to further identify which glycolysis-related protein is the target of BE, we investigated the antifungal activity of BE in the media containing different intermediate products of glycolysis. 3-Phosphoglyceric acid (3-PG) is a downstream intermediate of Pgk1-catalyzed glycolysis but an upstream intermediate of Eno1-catalyzed glycolysis, while pyruvate is a downstream intermediate of Eno1-catalyzed glycolysis (Fig. 2F). […]

[4] = molecular target: T2, recombinant C. albicans Eno1 (Candida albicans, UniProt P30575); assay: Target protein competition experiment between BE and label-BE (TAMRA-N3 reporter); type: binding; conditions: preincubation with 100 μM BE, then 10 μM label-BE; E. coli lysates with recombinant CaEno1
T2 construct: the full-length ENO1 gene from C. albicans was cloned into the pET-21a (+) plasmid; made in house; host or cells: E. coli BL21(DE3)
T2 sequence (P30575 whole entry): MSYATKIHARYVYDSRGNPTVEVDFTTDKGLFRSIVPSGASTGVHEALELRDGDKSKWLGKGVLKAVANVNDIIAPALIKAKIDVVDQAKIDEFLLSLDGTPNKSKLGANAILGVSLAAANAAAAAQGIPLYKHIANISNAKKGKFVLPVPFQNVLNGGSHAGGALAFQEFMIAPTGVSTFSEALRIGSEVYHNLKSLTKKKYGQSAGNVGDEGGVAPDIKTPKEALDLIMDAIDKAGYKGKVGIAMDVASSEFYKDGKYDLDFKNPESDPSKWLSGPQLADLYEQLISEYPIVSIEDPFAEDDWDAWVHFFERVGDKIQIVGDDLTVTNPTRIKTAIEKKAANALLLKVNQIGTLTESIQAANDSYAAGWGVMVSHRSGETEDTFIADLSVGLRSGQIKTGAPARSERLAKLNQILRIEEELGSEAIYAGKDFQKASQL
Source text: FIG 2 Eno1 is a target of BE. (A) Schematic diagram of synthesis label-BE. Label-BE is synthesized by intermediate TPD-10a with benzyl bromide structure and triacetylated BE. (B) The molecular structure of label-BE. Label-BE contains a trifluoromethylphenyl diazo heterocyclic propylene group (marked by a red dotted line) as a photoaffinity group to enhance the binding of label-BE to its target proteins and an alkyne group (marked by a blue dotted line) connected with an azide group (from the TAMRA-N3 or biotin-N3) by a copper-catalyzed azide-alkyne cycloaddition. (C) The molecular structures of TAMRA-N3 and biotin-N3. […] After separation of SDS-PAGE, label-BE-targeted proteins were visualized by in-gel fluorescence scanning. The three fluorescent bands in lane 3 (indicated by red triangles) were cut out and pooled and then analyzed by LC-MS/MS. […] The brighter band in lane 3 (indicated by red triangle) was then cut out and analyzed by LC-MS/MS. […]
Target protein competition experiments between BE and label-BE were performed as described previously ([51], [52]). […] The bands with changes in fluorescence brightness were then cut off and analyzed by LC-MS/MS; for labeling label-BE with biotin-N3, protein solutions were enriched with streptavidin-conjugated beads. […]

T1 sequence (P06733 whole entry): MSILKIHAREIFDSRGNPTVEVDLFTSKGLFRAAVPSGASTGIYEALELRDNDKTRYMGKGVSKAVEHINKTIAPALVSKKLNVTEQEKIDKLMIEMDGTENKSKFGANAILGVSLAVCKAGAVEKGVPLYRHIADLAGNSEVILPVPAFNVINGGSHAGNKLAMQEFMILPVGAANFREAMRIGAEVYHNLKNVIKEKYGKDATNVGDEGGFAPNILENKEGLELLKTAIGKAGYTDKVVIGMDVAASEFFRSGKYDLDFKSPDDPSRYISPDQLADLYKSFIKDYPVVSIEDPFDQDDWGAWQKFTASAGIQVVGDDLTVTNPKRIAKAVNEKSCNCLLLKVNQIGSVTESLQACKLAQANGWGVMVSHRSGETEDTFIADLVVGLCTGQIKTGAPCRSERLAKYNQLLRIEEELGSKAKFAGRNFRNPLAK

In the case of `O=c1cc(-c2ccccc2)oc2cc(O)c(O)c(O)c12` [BE, Baicalein], the IC50 [1] is reported as 91.3 ± 3.1 µM, the “antifungal activity (spot assay)” value ([2]; 64 μg/mL BE, solid YPD medium (20 mg/mL glucose)) is reported as “had antifungal activity” and the “antifungal activity (spot assay)” value ([2]; 64 μg/mL BE, solid YPG medium (2% glycerol)) is reported as “not in solid YPG medium”. The “antifungal activity (spot assay)” value ([2]; 128 μg/mL BE, solid YPD medium) was “potent antifungal activity”, the “growth of C. albicans (spot assay)” value ([2]; 128 μg/mL BE, solid YPG medium) was “could still grow” and the antifungal activity ([3]; liquid YP medium with 3-PG (32 mg/mL)) was “strong antifungal activity”. For the same compound, the antifungal activity ([3]; liquid YP medium with glucose (20 mg/mL)) was “strong antifungal activity”, the antifungal activity ([3]; liquid YP medium with glycerol (2% vol/vol)) was “no antifungal activity” and the antifungal activity ([3]; liquid YP medium with pyruvate (32 mg/mL)) was “no antifungal activity”. For the same compound, the “competition with label-BE for the CaEno1 band (in-gel fluorescence)” value [4] was “remarkably reduce the fluorescent brightness”.
